The record followed here is patent US8785483B2, “Methods for treating COPD” (The Board of Regents of the University of Texas System, priority 2010, dated 2014).

Experiment [1] concerns Muc5AC. The experiment can be described thus: RT-PCR of Muc5AC in IL-13-treated SAEC monolayer. Format: cell-based, human. The conditions noted are these: SAEC monolayer at ALI, IL-13 18 h. How it is done: FIGS. 6A-6B. AR inhibition prevents IL-13-induced expression of Mucin and transcription factor SPDEF in airway epithelial cell monolayer. (A) The airway epithelial cell monolayer at ALI was serum starved without or with fidarestat and incubated with IL-13 for 18 h. Total RNA was isolated and subsequently RT-PCR was performed to assess the expression of Muc5AC and SPDEF. The bar diagrams show densitometric analysis of the corresponding blots (n=4). *p<0.001 vs Control; **p<0.001 vs IL-13; (B) The monolayer of ciliated airway cells at ALI was treated with AR inhibitor for 24 h and subsequently incubated with IL-13 for 24 or 48 h. At the end of incubation, cell lysate was prepared and subjected to western blotting using antibodies against Muc5AC, Muc5B, and SPDEF. The membranes were stripped and re-probed with antibodies against GAPDH to show the equal loading of protein. A representative blot is shown (n=4). *p<0.0001 vs Control; **p<0.001 vs IL-13.
For air-liquid interface (ALI) culture, SAEC were seeded at 8.5×10^4 cells/12-mm-diameter PET transparent insert with […] pores (12-well millicell culture insert; Millipore) and pre-coated with rat tail collagen type-1 (Sigma-Aldrich). The cells were grown submerged in the differentiation medium as described earlier by Zhen et al. (Am J Respir Cell Mol Biol 36: 244-253, 2007). […]

The test system of experiment [2] is SAEC. The experiment can be described thus: Cytokines, chemokines and growth factors by Milliplex in SAEC culture media after CSE. Format: cell-based, human. The conditions noted are these: 24 h after CSE (50%). As for the experimental part: FIG. 2. CSE-induced changes in cytokine levels in SAEC prevented by aldose reductase (AR) inhibition. *p<0.01 Vs Control; **p<0.05 Vs CSE 50%; #p<0.001 Vs Control; ##p<0.01 Vs CSE 50% Primary human Small Airway Epithelial Cells (SAEC) obtained from Lonza (Walkersville, Md.) were normal human SAEC harvested from distal airspace of donor. The cells were cultured according to the supplier's instructions at 37° C. in humidified atmosphere containing 95% air and 5% CO2 in small airway epithelial basal medium (SABM) with supplements containing 52 μg/ml bovine pituitary extract, 0.5 ng/ml human recombinant epidermal growth factor (EGF), 0.5 μg/ml epinephrine, 1 μg/ml hydrocortisone, 10 μg/ml transferrin, 5 μg/ml insulin, 0.1 ng/ml retinoic acid (RA), 6.5 ng/ml triiodothyronine, 50 μg/ml Gentamicin/Amphotericin-B (GA-1000), and 50 μg/ml fatty acid-free bovine serum albumin (BSA). Research-grade cigarettes (1R3F) with a filter from the Kentucky Tobacco Research and Development Center at the University of Kentucky (Lexington, Ky.) were smoked to 0.5 cm above the filter in a fume hood, using a modification of the method developed by Carp and Janoff (Am Rev Respir Dis. 1978; 118(3):617-621). […] The levels of cytokines and chemokines in the supernatant were determined by Milliplex MAP kits according to the manufacturer's instructions (Millipore Corporation, Bellerica, Mass.)).

For the molecule `NC(=O)[C@@H]1C[C@]2(NC(=O)NC2=O)c2cc(F)ccc2O1` [fidarestat, (2S,4S)-2-aminoformyl-6-fluoro-spiro[chroman-4,4′-imidazolidine]-2′,5′-dione], the “IL-13-induced Muc5AC-specific RNA expression” value in experiment [1] was “significantly prevented the increase”. Further, in experiment [2], the “prevention of CSE-induced increase in chemokines (G-CSF, MCP-1, GM-CSF, IP-10) and growth factors (TGF-α, VEGF)” value is listed as “more than 50%”; the “prevention of CSE-induced increase in cytokines (IL-1a, IL-8, TNF-α)” value is “significantly (p<0.05 and 0.01) prevented”.
